Earlier results in patent US6943021B2, “Three dimensional vaginal tissue model containing immune cells” (MatTek Corporation, priority 2002, dated 2005).

Tested on: ectocervical-vaginal tissue

Q: For Nonoxynol-9 [N-9], which ectocervical-vaginal irritation (finite segment of the population (Reckart 1992)) is on record?
A: cause ectocervical-vaginal irritation

Q: And the “volunteers who experienced ectocervical-vaginal irritation” value (study evaluating N-9 as an HIV microbicide (Stafford et al. 1998))?
A: 25%
